The text below walks through data of patent US12691056B2 (priority 2020, dated 2026).

Each structure is given as a SMILES string.

For series [1] the following is noted: cited from earlier work.
Series [2] deals with CYP3A4 and CYP2D6 enzymes. As to conditions: in vitro studies; cited from earlier work.
The test system of series [3] is CYP1A1, CYP1A2, CYP2A6, CYP2B6, CYP2C8, CYP2C9, CYP2C19, or CYP2E1 enzymes. As to conditions: cited from earlier work.
The conditions of series [4]: aripiprazole intramuscular depot formulation; cited from earlier work.
The mark [5] stands for this setting: Inter-Individual Variability (CV %).
Where [6] appears, read: final combined popPK model, Fixed.

With `O=C1CCc2ccc(OCCCCN3CCN(c4cccc(Cl)c4Cl)CC3)cc2N1` [aripiprazole, 7-[4-[4-(2,3-dichlorophenyl)-1-piperazinyl]butoxy]-3,4-dihydrocarbostyril], where the note is “CYP2D6 PM subjects”, the “lower apparent clearance in CYP2D6 poor metabolizers” value is on record as “approximately 50%”. Under setting [5], the “IIV on Vc” value is 2.18 (148%), the “IIV on deltoid IM Ka” value is given as 0.237 (48.9%) and the “IIV on gluteal IM Ka” value was 0.359 (60.0%). Moreover, the “IIV on oral Ka” value (Inter-Individual Variability (CV %), Fixed) is on record as 0.434 (65.9%). Moreover, under setting [6], the “CL Apparent clearance for subjects who are not poor CYP2D6 metabolizers” value is 3.71 Fixed L/hr, the “CLpm Apparent clearance for subjects who are poor CYP2D6 metabolizers” value is listed as 1.88 Fixed Lhr, the “IM Ka_BMI Effect of BMI on IH Ka: power for (BMI/28)” value is on record as −0.975 Fixed and the “IM Ka_male Proportional shift of IM Ka for males” value was found to be 0.346 Fixed. For the same compound, under setting [6], the “IMKa Gluteal IM 1st order absorption safe constant” value was 0.000904 h⁻¹, the “Q1 Inter-compartmental clearance 1” value is reported as 0.591 Fixed L/hr and the “Q2 Inter-compartmental clearance 2” value was 28.8 Fixed L/hr. Moreover, the absolute oral bioavailability result in series [1] (tablet formulation) is “about 87%”. Moreover, in series [2], the “enzyme for N-dealkylation” value was “catalyzed by CYP3A4”; the “enzymes for dehydrogenation and hydroxylation” value was “CYP3A4 and CYP2D6 enzymes are responsible”. In addition, the “substrate of CYP1A1, CYP1A2, CYP2A6, CYP2B6, CYP2C8, CYP2C9, CYP2C19, or CYP2E1 enzymes” value in series [3] is “not a substrate”.
Take `O=c1ccc2ccc(OCCCCN3CCN(c4cccc(Cl)c4Cl)CC3)cc2[nH]1` [dehydro-aripiprazole]: the “share of the parent drug exposure in plasma” value in series [4] is listed as “about 29%”. For the same compound, the “share of aripiprazole AUC in plasma” value in series [1] (at steady-state) was “about 40%”.
